Data from US20250367170A1, “TOPICAL ANGIOTENSIN II RECEPTOR BLOCKERS (ARBS) FOR TREATING EYE CONDITIONS” (The Cleveland Clinic Foundation, priority 2022, published 2025).

How the values were obtained:
[1] = system: central corneal neovascularization (CNV); experiment: Corneal angiography for central corneal neovascularization after alkali burn; assay type: in vivo, New Zealand White rabbits; details: topical six times per day, one month, all four vehicle corneas positive
Method: Alkali injuries were produced in one eye of rabbits with previously published methods^10 using 1N sodium hydroxide (Sigma, St. Louis, MO) in balanced salt solution (BSS, 0.64% sodium chloride, 0.075% potassium chloride, 0.048% calcium chloride dihydrate, 0.03% magnesium chloride hexahydrate, 0.39% sodium acetate trihydrate, 0.17% sodium citrate dihydrate, pH 7.5, Alcon, Ft. Worth, TX) and a 5 mm diameter circular Whatman No. 1 filter paper (Cat #1001-6508, Fisher Scientific) wetted with 100 μl of 1N NaOH solution. Following the alkali burn injury, the cornea was irrigated profusely with BSS. Each injured cornea also received one drop of ciprofloxacin (Alcon, Ft. Worth, TX, USA) ten minutes after surgery and four times a day for one week and at least 15 minutes apart from the study medications.
Worth TX), at least 5 minutes apart, or 4) 50 μl of BSS.
All corneas had fluorescent angiography at the peak of dye passage in the cornea immediately after injection of 1.5 ml of 10% sodium fluorescein (McKesson, Irvine, TX) in the central ear vein with the slit lamp system and digital camera system using a “barrier filter” that only transmitted 520-530 nm, the peak of fluorescein emission, with broad illumination of the cornea, as previously described.^11

[2] = system: α-SMA-positive myofibroblasts; experiment: IHC for α-SMA-positive myofibroblasts, area and intensity (ImageJ) after alkali burn; assay type: in vivo, New Zealand White rabbits; details: one month
Method: One month after exposure and topical treatment, rabbits were euthanized after ketamine-xylazine general anesthesia with 100 mg/kg Beuthanasia (Shering-Plough, Kenilworth, NJ) by intravenous injection and bilateral pneumothorax. The corneo-scleral rims of eyes were removed with sharp Westcott scissors (Fairfield, CT, USA) and 0.12 forceps (Storz, St. Louis, MO). The cornea was centered in a 24×24×5 mm mold (Fisher Scientific, Pittsburgh, PA, USA) that was filled with OCT compound (Sakura Finetek, Torrance, CA, USA) and quick frozen on dry ice. Blocks were stored at −80° C. until sectioning. […]
The area of the α-SMA-positive stroma in mm^2 and the total α-SMA opacity in pixels were quantitated using standardized images obtained with a 10× objective on a Leica DM6B upright microscope equipped with an automated stage and Leica 7000 T camera using the LAS X software (Leica Microsystems, GmbH, Wetzlar, Germany). The means of three central corneal sections were analyzed from each cornea to provide the area of α-SMA-positive stroma and the total α-SMA opacity. […] In these same sections for each cornea, the total α-SMA-positive intensity in pixels was also determined with ImageJ, similarly by using the summation if separate α-SMA-positive areas were present.

[3] = system: rabbit corneas after -9D PRK; experiment: Slit lamp central opacity (ImageJ) one month after -9D PRK; assay type: in vivo, New Zealand white rabbits; details: topical 0.2 mg/ml six times a day, vehicle 93±6
Method: Animal procedures were approved by the Institutional Animal Care and Use Committee at the Cleveland Clinic Foundation and animals were treated in accordance with the tenets of the Association for Research in Vision and Ophthalmology Statement for the Use of Animals in Ophthalmic and Vision Research. Twelve female 12- to 15-week-old New Zealand white rabbits weighing 2.5 to 3 kg each were included. Starting 24 hours prior to surgery and continuing 5 days after PRK, all rabbits received 60 mL children's liquid acetaminophen (Johnson & Johnson, Ft. Washington, PA, USA) per 1 L of drinking water. One eye of each rabbit was randomly selected to have −9.0 D (on myopia scale) PRK and received 2 drops of topical 1% proparacaine hydrochloride (Alcon, Fort Worth, TX, USA) prior to the surgery. […]
At 1 month after PRK and treatment, each rabbit was placed under ketamine-xylazine general anesthesia and the eyes were dilated with two drops of 1% tropicamide (Akorn Co., Lake Forest, IL, USA) for 30 minutes. […] For each study cornea, the mean opacity in pixels in the central 3.5 mm of the PRK ablated zone was determined by using ImageJ 1.53a analysis software (National Institutes of Health, Bethesda, MD, USA).

CCCCc1nc(Cl)c(CO)n1Cc1ccc(-c2ccccc2-c2nn[nH]n2)cc1 [losartan]
corneas (of four) that developed central corneal neovascularization [1]: two | total α-SMA area vs vehicle control group [2]: trend towards the losartan group being significantly different | mean pixels of opacity within the central 3.5 mm diameter area (mean±SEM) [3]: 77±3 pixels
